According to patent US20240398787A1, “TREATMENT OF MAJOR DEPRESSIVE DISORDER” (AbbVie Inc., priority 2021, published 2024):

Test system: patients with major depressive disorder (MDD)
Assay: MADRS total score, Clinical Study A (Study 301): cariprazine adjunctive to ADT, 6-week double-blind
Assay type: in vivo, human
Settings: for Proportion of patients with MADRS improvement ≥5 points / Proportion of patients with MADRS improvement ≥10 points / Proportion of patients with MADRS improvement ≥15 points / Proportion of patients with MADRS improvement ≥20 points / Proportion of patients with MADRS improvement ≥25 points: post hoc, end of week 6 (LOCF); for MADRS remission rate (total score ≤10) / MADRS response rate (≥50% score reduction from baseline): LOCF
Description: A global, multicenter, randomized, double-blind (DB), placebo-controlled, parallel-group, fixed-dose study compared cariprazine 1.5 mg/day and cariprazine 3 mg/day with placebo as an adjunctive treatment to ongoing ADT in outpatients with a diagnosis of MDD (via the Diagnostic and Statistical Manual of Mental Disorders, Fifth Edition [DSM-5]) having an inadequate response, as measured by the modified Antidepressant Treatment Response Questionnaire (ATRQ), to 1 to 3 antidepressants administered during the current episode at an adequate dose and adequate duration. Adequate dose was defined as a dose above the minimum labeled dose (per package insert). Adequate duration was defined as continuous ADT treatment for at least 6 weeks, with a minimum of 3 of 6 weeks above the minimal dose.
The study population included patients meeting criteria for MDD with a current major depressive episode of at least 8 weeks to less than 24 months in duration and an inadequate response to ongoing antidepressant therapy on the current episode. Both male and female patients of 18 to 65 years of age qualified for the study. Patients met the DSM-5 criteria for MDD based on the SCID-5, with a current major depressive episode of at least 8 weeks to less than 24 months in duration at the time of patient screening. A diagnosis of MDD with psychotic features was […].
Adequate dose was defined as a dose above the minimum labeled dose (per package insert). Adequate duration was defined as continuous antidepressant therapy treatment for at least 6 weeks, with a minimum of 3 of 6 weeks above the minimum dose.
The study consisted of up to 14 days screening (with up to an additional 7 days of needed) and washout of prohibited medications followed by 6 weeks of double-blind (DB) treatment followed by a 4-week safety follow-up. At the end of the screening period, patients meeting the entry criteria for the study were randomized (1:1:1) to 1 of 3 double-blind treatment groups. Study treatment groups were: cariprazine 1.5 mg/day+antidepressant therapy and cariprazine 3 mg/day+antidepressant therapy. The control group received matching placebo+antidepressant therapy.
Dosage/Dose Regimen: Investigational product (cariprazine or placebo) in the form of capsules packaged in blister packs will be provided. No investigational product was administered during the screening/washout period; patients continued the same antidepressant and dose they were on at screening. Patients were taking more than one antidepressant at screening, regardless of the indication, discontinued all other antidepressants prior to baseline (Visit 2). During the double-blind treatment period (6 weeks), patients were administered 1 capsule orally per day in addition to their ongoing ADT. Patients in the 1.5 mg/day+ADT arm were administered 1.5 mg+ADT starting at Visit 2 (Week 0). Patients in the 3 mg/day+ADT arm were administered 1.5 mg+ADT starting at Visit 2 (Week 0) for 2 weeks and then titrate to 3 mg/day+ADT starting at Visit 4 (Week 2). Patients were supplied with identically appearing capsules of either cariprazine 1.5 mg, cariprazine 3 mg, or placebo.
A randomized, double-blind, placebo-controlled, multicenter trial with 759 participants was conducted in United States, Bulgaria, Estonia, Germany, Hungary, Ukraine, and the United Kingdom. Following a screening period of up to 14 days (with up to an additional 7 days if needed), which included a washout of prohibited psychotropic medications except for ongoing ADT, patients with a partial response to their antidepressant monotherapy were randomized into three treatment groups (1:1:1). One group received cariprazine 1.5 mg/d+ADT, one received cariprazine 3.0 mg/d+ADT, and one group received placebo+ADT. All participants randomized to cariprazine began on 1.5 mg/d; cariprazine 1.5 mg/d patients remained at that dosage, while cariprazine 3.0 mg/d patients received 1.5 mg/d for 2 weeks and increased to 3.0 mg/d on day 15. […]

[1] = 1.5 mg/d + ADT, week 6, ANCOVA and LOCF
[2] = 3.0 mg/d + ADT, week 6, ANCOVA and LOCF
[3] = change from baseline to week 6, dose not stated

Structure (SMILES): CN(C)C(=O)N[C@H]1CC[C@H](CCN2CCN(c3cccc(Cl)c3Cl)CC2)CC1 [Cariprazine, trans-N-{4-[2-[4-(2,3-dichlorophenyl)piperazin-1-yl]ethyl]cyclohexyl}-N′,N′-dimethylurea]
- Proportion of patients with MADRS improvement ≥5 points (1.5 mg/d + ADT): 84%
- Proportion of patients with MADRS improvement ≥10 points (1.5 mg/d + ADT): 64%
- Proportion of patients with MADRS improvement ≥15 points (1.5 mg/d + ADT): 46%
- Proportion of patients with MADRS improvement ≥20 points (1.5 mg/d + ADT): 33%
- Proportion of patients with MADRS improvement ≥25 points (1.5 mg/d + ADT): 19%
- Mean (SD) MADRS score at week 6 (1.5 mg/d + ADT, week 6): 17.4 (9.1)
- LS mean change from baseline in MADRS total score [1]: −14.4
- LSMD vs placebo, MADRS total score [1]: −2.4
- MADRS remission rate (total score ≤10) (1.5 mg/d + ADT, week 6): 25.2%
- MADRS response rate (≥50% score reduction from baseline) (1.5 mg/d + ADT, week 6): 44.0%
- LS Mean (SE) change from baseline, MADRS total score (1.5 mg/day + ADT, week 1, MMRM): −4.4 (0.5)
- LSMD (95% CI) vs placebo + ADT, MADRS total score (1.5 mg/day + ADT, week 1, MMRM): −0.6 (−1.5; 0.5)
- MADRS remission, odds ratio vs placebo (95% CI) (1.5 mg/day + ADT, week 2): 0.9 (0.4, 1.8)
- MADRS remissions (total score ≤10) (1.5 mg/day + ADT, week 2): 13 (5.2) n (%)
- MADRS responders (≥50% score reduction) (1.5 mg/day + ADT, week 2): 43 (17.2) n (%)
- MADRS response, odds ratio vs placebo (95% CI) (1.5 mg/day + ADT, week 2): 1.2 (0.7, 2.0)
- LS Mean (SE) change from baseline, MADRS total score (1.5 mg/day + ADT, week 2, MMRM): −8.6 (0.6)
- LSMD (95% CI) vs placebo + ADT, MADRS total score (1.5 mg/day + ADT, week 2, MMRM): −1.2 (−2.5; 0)
- MADRS remission, odds ratio vs placebo (95% CI) (1.5 mg/day + ADT, week 4): 1.2 (0.7, 1.9)
- MADRS remissions (total score ≤10) (1.5 mg/day + ADT, week 4): 37 (14.8) n (%)
- MADRS responders (≥50% score reduction) (1.5 mg/day + ADT, week 4): 88 (35.2) n (%)
- MADRS response, odds ratio vs placebo (95% CI) (1.5 mg/day + ADT, week 4): 1.6 (1.1, 2.3)
- LS Mean (SE) change from baseline, MADRS total score (1.5 mg/day + ADT, week 4, MMRM): −12.4 (0.6)
- LSMD (95% CI) vs placebo + ADT, MADRS total score (1.5 mg/day + ADT, week 4, MMRM): −2.9 (−4.3; −1.5)
- MADRS remissions (total score ≤10) (1.5 mg/day + ADT, week 6): 63 (25.2) n (%)
- MADRS responders (≥50% score reduction) (1.5 mg/day + ADT, week 6): 110 (44.0) n (%)
- LSMD vs placebo, MADRS total score (1.5 mg/day + ADT, week 6, MMRM): −2.5 (−4.2; −0.9)
- LSMD vs placebo, MADRS total score (1.5 mg/day + ADT, week 6, MMRM, listed as CAR): −2.5
- LSMD vs placebo, MADRS total score (1.5 mg/day + ADT, week 6, MMRM, listed as cariprazine): −2.5
- LS mean change from baseline in MADRS total score (1.5 mg/day + ADT, week 6, MMRM, mITT): −14.1 (0.7)
- LS mean change from baseline in MADRS total score (1.5 mg/day + ADT, week 6, MMRM, mITT, listed as cariprazine): −14.1
- Proportion of patients with MADRS improvement ≥5 points (3.0 mg/d + ADT): 84%
- Proportion of patients with MADRS improvement ≥10 points (3.0 mg/d + ADT): 66%
- Proportion of patients with MADRS improvement ≥15 points (3.0 mg/d + ADT): 43%
- Proportion of patients with MADRS improvement ≥20 points (3.0 mg/d + ADT): 24%
- Proportion of patients with MADRS improvement ≥25 points (3.0 mg/d + ADT): 11%
- Mean (SD) MADRS score at week 6 (3 mg/d + ADT, week 6): 18.6 (8.9)
- LS mean change from baseline in MADRS total score [2]: −13.3
- LSMD vs placebo, MADRS total score [2]: −1.3
- MADRS remission rate (total score ≤10) (3.0 mg/d + ADT, week 6): 16.7%
- MADRS response rate (≥50% score reduction from baseline) (3.0 mg/d + ADT, week 6): 39.3%
- LS Mean (SE) change from baseline, MADRS total score (3 mg/day + ADT, week 1, MMRM): −3.9 (0.5)
- LSMD (95% CI) vs placebo + ADT, MADRS total score (3 mg/day + ADT, week 1, MMRM): −0.1 (−1.0; 0.8)
- MADRS remission, odds ratio vs placebo (95% CI) (3 mg/day + ADT, week 2): 0.5 (0.25, 1.23)
- MADRS remissions (total score ≤10) (3 mg/day + ADT, week 2): 9 (3.6) n (%)
- MADRS responders (≥50% score reduction) (3 mg/day + ADT, week 2): 39 (15.5) n (%)
- MADRS response, odds ratio vs placebo (95% CI) (3 mg/day + ADT, week 2): 1.1 (0.7, 1.8)
- LS Mean (SE) change from baseline, MADRS total score (3 mg/day + ADT, week 2, MMRM): −7.8 (0.6)
- LSMD (95% CI) vs placebo + ADT, MADRS total score (3 mg/day + ADT, week 2, MMRM): −0.5 (−1.7; 0.8)
- MADRS remission, odds ratio vs placebo (95% CI) (3 mg/day + ADT, week 4): 0.6 (0.4, 1.1)
- MADRS remissions (total score ≤10) (3 mg/day + ADT, week 4): 22 (8.7) n (%)
- MADRS responders (≥50% score reduction) (3 mg/day + ADT, week 4): 60 (23.8) n (%)
- MADRS response, odds ratio vs placebo (95% CI) (3 mg/day + ADT, week 4): 0.9 (0.6, 1.3)
- LS Mean (SE) change from baseline, MADRS total score (3 mg/day + ADT, week 4, MMRM): −10.6 (0.6)
- LSMD (95% CI) vs placebo + ADT, MADRS total score (3 mg/day + ADT, week 4, MMRM): −1.0 (−2.4; 0.4)
- MADRS remissions (total score ≤10) (3 mg/day + ADT, week 6): 42 (16.7) n (%)
- MADRS responders (≥50% score reduction) (3 mg/day + ADT, week 6): 99 (39.3) n (%)
- LSMD vs placebo, MADRS total score (3 mg/day + ADT, week 6, MMRM): −1.5 (−3.2; 0.1)
- LSMD vs placebo, MADRS total score (3 mg/day + ADT, week 6, MMRM, listed as CAR): −1.5
- LS mean change from baseline in MADRS total score (3 mg/day + ADT, week 6, MMRM, mITT): −13.1
- LSMD vs placebo, MADRS individual item "apparent sadness" [3]: −0.2
- LSMD vs placebo, MADRS individual item "inability to feel" [3]: −0.3
- LSMD vs placebo, MADRS individual item "lassitude" [3]: −0.3
- LSMD vs placebo, MADRS individual item "pessimistic thoughts" [3]: −0.3
- LSMD vs placebo, MADRS individual item "reduced appetite" [3]: −0.3
- LSMD vs placebo, MADRS individual item "reported sadness" [3]: −0.4
- LSMD vs placebo, MADRS individual item "suicidal thoughts" [3]: −0.1
